{"source": "patent US20240408053A1", "about": "“ENTERITIS-SUPPRESSING COMPOSITION” (KOBE GAKUIN EDUCATIONAL FOUNDATION, priority 2021, published 2024)", "key": {"[1]": {"tested_on": "MDA+HAE", "assay": "Lipid peroxide measurement (MDA+HAE) in colon tissue", "assay_type": "in vivo, mice", "settings": "group ES: 2.0% v/v ethanol diet + 2.5 mg sesaminol per day oral, 2 weeks; group E highest", "method": "Lipid peroxidation is used as an indicator of oxidative stress in cells and tissues; lipid peroxides produce MDA and HAE upon degradation. Therefore, the MDA+HAE level in colon tissue was examined as a marker of lipid peroxidation response.\nA colon tissue sample (100 mg) was homogenized in 1 mL of 20 mM phosphate buffered saline (pH of 7.4) with a homogenizer and centrifuged at 3,000× g at 4° C. for 10 minutes. The resulting precipitate was examined for malondialdehyde (MDA) and 4-hydroxyalkenals (HAE) using a lipid peroxide assay kit (Oxford Biomedical Research, Inc.)."}, "[2]": {"assay": "Body weight and percentage of liver weight relative to body weight, 4 weeks", "assay_type": "in vivo, mice", "settings": "mean ±SD", "from_the_text": "(§1) The liver function and plasma lipid level in the mice in each group were examined by measuring the percentage of the liver weight relative to the body weight, the triglyceride (TG) concentration in the liver, the aspartate aminotransferase (AST) activity in the plasma, the alanine aminotransferase (ALT) activity in the plasma, and the TG concentration in the plasma of the mice in each group.\nThe body weight of mice fed for 4 weeks were weighed and dissected under anesthesia. The liver was removed and weighed. The weight ratio between the body weight and the liver of each individual was evaluated."}, "[3]": {"tested_on": "ethanol-induced lesions in mouse colon", "assay": "Microscopic evaluation of colon tissue (HE, TB, PAS, MUC2 staining), 4 weeks", "assay_type": "in vivo, mice", "settings": "group ES: 2.0% v/v ethanol diet + 2.5 mg sesaminol per day oral", "method": "In order to verify the longer-term effect of oral administration of sesaminol on ethanol-induced oxidative stress in mouse colon, the colonic epithelium of the mice in each group (groups C, E, S, and ES) described in Example 7 was HE-stained, TB-stained, and periodic-acid-Schiff (PAS)-stained and observed under a microscope (FIGS. 10(A),(B), and (C)). Immunostaining with MUC2 polyclonal antibody was then performed (FIG. 10(D)). HE staining, TB staining, and immunostaining with MUC2 polyclonal antibody were performed in the same manner as in Example 2.\n(§2) Colon tissue samples were each fixed in a 10% v/v neutral formaldehyde solution overnight at room temperature and paraffin-embedded. The colon tissue sections were then stained with PAS staining reagent for the detection of goblet cells. Each stained specimen was observed under a microscope and subjected to image analysis."}, "[4]": {"tested_on": "claudin-1", "assay": "Immunofluorescence staining of Claudin-1 in colon tissue, 4 weeks", "assay_type": "in vivo, mice", "settings": "group ES: 2.0% v/v ethanol diet + 2.5 mg sesaminol per day oral, group E significant decrease", "method": "(§3) Next, in order to verify the longer-term effect of oral administration of sesaminol on ethanol-induced intestinal tight junction (TJ) dysfunction and leaky gut, histological analysis of colonic epithelial TJ proteins (ZO-1, Occludin, and Claudin-1) and analysis of the plasma LPS level were performed using the mice in each group (groups C, S, E, and ES) described in Example 7. Histological analysis was performed by immunofluorescence staining with anti-ZO-1, anti-Occludin, and anti-Claudin-1 antibodies, followed by observation under a fluorescence microscope. The Plasma LPS level was measured according to the method described in Example 6."}, "[5]": {"assay": "Change in body weight and general observation, 4 weeks", "assay_type": "in vivo", "settings": "groups S and ES (2.5 mg sesaminol per day, oral) vs groups C and E", "method": "Ten-week-old C57BL/6NCr male mice were divided into four groups (eight mice per group), i.e., group C, group S, group E, and group ES, and fed daily for 4 weeks in the same manner as in Example 1.\nThe body weights of the mice in the above four groups (group C, group S, group E, and group ES) were measured every week."}, "[6]": {"tested_on": "occludin", "assay": "Immunofluorescence staining of Occludin in colon tissue, 4 weeks", "assay_type": "in vivo, mice", "settings": "group ES: 2.0% v/v ethanol diet + 2.5 mg sesaminol per day oral, group E significant decrease", "method": "as §3"}, "[7]": {"tested_on": "ethanol-induced lesion in mouse liver", "assay": "HE or Oil Red O staining of liver sections (ethanol-induced alcoholic steatohepatitis)", "assay_type": "in vivo, mice", "settings": "group ES: 2.0% v/v ethanol diet + 2.5 mg sesaminol per day oral, 4 weeks; group E significant increase", "from_the_text": "Additionally, liver sections of the mice in each group (groups C, E, S, and ES) were stained with HE or Oil Red 0, and observed under a microscope.\nas §2, with “Liver” for “Colon”, “liver” for “colon”, “HE reagent, and frozen tissue sections were stained with Oil Red O reagent.” for “PAS staining reagent for the detection of goblet cells.”"}, "[8]": {"assay": "TG amount in the liver, 4 weeks", "assay_type": "in vivo, mice", "settings": "mean ±SD", "method": "as §1\nEach liver was homogenized at 4° C., and TG was extracted according to the product protocol of a reagent kit for TG extraction from tissue (Lipid Droplet Isolation Kit, produced by Cell Biolabs, Inc.). The amounts of TG and protein in each extracted sample were quantified according to the product protocol of each measuring reagent and converted to the TG amount (mg) per protein (g) for evaluation."}, "[9]": {"tested_on": "8-OHdG", "assay": "8-OHdG level in colon tissue (immunohistochemical staining, ELISA)", "assay_type": "in vivo, mice", "settings": "group ES: 2.0% v/v ethanol diet + 2.5 mg sesaminol per day oral, 2 weeks, group E highest", "from_the_text": "The present inventors have previously reported that chronic oral administration of ethanol to mice increases oxidative stress in colon tissue (NPL 13). Therefore, in order to verify the effect of oral administration of sesaminol on oxidative stress in the colon induced by chronic oral consumption of ethanol, the levels of oxidative stress markers (8-hydroxy-2′-deoxyguanosine (8-OHdG), malondialdehyde (MDA), and 4-hydroxyalkenals (HAE)) were examined in colon tissue of the mice in groups C, S, E, and ES.\nThe level of 8-OHdG, which is an oxidative stress marker in tissue, was examined by immunohistochemical staining and ELISA.\nImmunostained tissue specimens were prepared in the same manner as the method described above, except that the primary antibody was rabbit anti-8-OHdG monocolonal antibody.\nA colon tissue sample (50 mg) was homogenized in 1 mL of DNAzol reagent, and the resulting homogenate was centrifuged at 20,000× g at 4° C. for […]. DNA was then isolated from the supernatant by ethanol precipitation and treated with an 8-OHdG assay preparation reagent set (FUJIFILM Wako Pure Chemical\nCorporation). Equal amounts of the extracted DNA were used for analysis of the 8-OHdG level using an OxiSelect oxidative DNA damage ELISA kit (Cell Biolabs, Inc.)."}, "[10]": {"settings": "EtOH (2.0% v/v) + Sesaminol group ES"}}, "note": "Entries after “also recorded” stand apart in the source; their conditions may differ.", "data": [{"smiles": "Oc1cc2c(cc1C1OCC3C(c4ccc5c(c4)OCO5)OCC13)OCO2", "note": "(stereo not shown) [Sesaminol]", "values": [{"measurement": "MDA+HAE level in colon tissue", "setting": "[1]", "result": "next highest value; also recorded: slightly higher than those of group C and group S"}, {"measurement": "Body weight", "setting": "[2]; [10]", "result": "25.4 ± 1.0", "unit": "g"}, {"measurement": "Liver/body weight ratio", "setting": "[2]; [10]", "result": "4.04 ± 0.41 g/g, %"}, {"measurement": "Body weight", "setting": "[2]; Sesaminol (2.5 mg/d) group S", "result": "25.9 ± 0.8", "unit": "g"}, {"measurement": "Liver/body weight ratio", "setting": "[2]; Sesaminol (2.5 mg/d) group S", "result": "3.96 ± 0.55 g/g, %"}, {"measurement": "histological image of colon tissue (epithelium atrophy, goblet cells, mucus-secreting cells)", "setting": "[3]", "result": "tendency of returning to the histological image of group C"}, {"measurement": "protein level of Claudin-1 in colon tissue (fluorescence microscope observation)", "setting": "[4]", "result": "improvement in all of those levels"}, {"measurement": "body-weight changes between the groups", "setting": "[5]", "result": "No significant differences"}, {"measurement": "protein level of Occludin in colon tissue (fluorescence microscope observation)", "setting": "[6]", "result": "improvement in all of those levels"}, {"measurement": "lipid droplets in Oil Red O-stained liver tissue", "setting": "[7]", "result": "decrease in lipid droplets"}, {"measurement": "Liver TG", "setting": "[8]; [10]", "result": "51.8 ± 9.5 mg/g of protein"}, {"measurement": "Liver TG", "setting": "[8]; Sesaminol (2.5 mg/d) group S", "result": "38.1 ± 12.4 mg/g of protein"}, {"measurement": "8-OHdG level in colon tissue", "setting": "[9]", "result": "next highest level"}]}]}
